Laboratory results taken from publication PMC9649612, “Molecular docking and biochemical validation of (-)-syringaresinol-4-O-β-D-apiofuranosyl-(1→2)-β-D-glucopyranoside binding to an allosteric site in monoamine transporters” (Frontiers in Pharmacology, 2022).

What was measured:
[1] = target: T1, hNET Q314A (S2 site mutant) (Homo sapiens, UniProt P23975, Q314A); assay: APP+ transport in HeLa cells expressing hNET mutant Q314A; type: cell-based; settings: intact HeLa cells, read-out: SAG IC50
T1 construct: expressed in transfected cells; host or cells: HeLa
Protocol: (§1) The mutants used for this study were constructed in the WT background carried by the expression plasmids for hSERT, hDAT, or hNET under the control of CMV promotor in pcDNA3.1 vector, respectively. All mutants were generated using the Mut Express II Fast Mutagenesis Kit (Vazyme) and confirmed by full-length DNA sequencing.
(§2) HeLa cells were cultured in Dulbecco’s Modified Eagle’s Medium supplemented with 10% fetal bovine serum, 100 units/ml penicillin, and 100 μg/ml streptomycin at 37°C in a humidified 5% CO2 incubator. Cells were plated in a 6-well culture plate and grown overnight. Cells at ∼70% confluence were transfected with hSERT, hDAT, or hNET cDNA in pcDNA3.1 by lipofectamine 2000. […] After grown for additional 12–16 h, the cells were assayed for APP^+ or ASP^+ fluorescence image acquisition.
(§3) The cells expressing WT or mutants of hSERT, hDAT, or hNET were wet mounted on polylysine coated glass slides in 12-well plates and applied for the indicated treatments. […] The extent of APP^+ accumulated in the cells was determined by confocal imaging analysis. ASP^+ binding to SERT in the cell membrane was measured with digitonin-permeabilized cells ([Li M. et al., 2022a]). […] After removing excess ASP^+ by rapid washing three times, ASP^+ binding was determined by confocal imaging analysis.
(§4) Images were analyzed using Zen Blue software. […]

[2] = target: T2, hDAT S422T (S1 site mutant) (Homo sapiens, UniProt Q01959, S422T); assay: APP+ transport in HeLa cells expressing hDAT mutant S422T; type: cell-based
T2 construct: expressed in transfected cells; host or cells: HeLa
Protocol: as §1, §2, §3, §4

[3] = target: T3, hSERT E493N (S2 site mutant) (Homo sapiens, UniProt P31645, E493N); assay: APP+ transport in HeLa cells expressing hSERT mutant E493N; type: cell-based; settings: 2 μM APP+ 5 min, intact HeLa cells, read-out: SAG IC50 for transport
T3 construct: expressed in transfected cells; host or cells: HeLa (ATCC CCL-2), transient, pcDNA3.1
Protocol: as §1, §2, §3, §4

[4] = target: T4, hSERT P560G (S2 site mutant) (Homo sapiens, UniProt P31645, P560G); assay: APP+ transport in HeLa cells expressing hSERT mutant P560G; type: cell-based; settings: 2 μM APP+ 5 min, intact HeLa cells, read-out: SAG IC50 for transport
T4 construct: expressed in transfected cells; host or cells: HeLa (ATCC CCL-2), transient, pcDNA3.1
Protocol: as §1, §2, §3, §4

[5] = target: T5, hSERT Q562N (S2 site mutant) (Homo sapiens, UniProt P31645, Q562N); assay: ASP+ binding in digitonin-permeabilized HeLa cells expressing hSERT Q562N; settings: 10 μM ASP+, read-out: SAG IC50 for binding
T5 construct: expressed in transfected cells; host or cells: HeLa (ATCC CCL-2), transient, pcDNA3.1
Protocol: as §1, §2, §3, §4

[6] = target: T6, hSERT E494Q (S2 site mutant) (Homo sapiens, UniProt P31645, E494Q); assay: ASP+ binding in digitonin-permeabilized HeLa cells expressing hSERT E494Q; settings: 10 μM ASP+, read-out: SAG IC50 for binding
T6 construct: expressed in transfected cells; host or cells: HeLa (ATCC CCL-2), transient, pcDNA3.1
Protocol: as §1, §2, §3, §4

[7] = target: T7, hSERT Y579A (S2 site mutant) (Homo sapiens, UniProt P31645, Y579A); assay: APP+ transport in HeLa cells expressing hSERT mutant Y579A; type: cell-based; settings: 2 μM APP+ 5 min, intact HeLa cells, read-out: SAG IC50 for transport
T7 construct: expressed in transfected cells; host or cells: HeLa (ATCC CCL-2), transient, pcDNA3.1
Protocol: as §1, §2, §3, §4

[8] = target: T8, hDAT R544G (S2 site mutant) (Homo sapiens, UniProt Q01959, R544G); assay: APP+ transport in HeLa cells expressing hDAT mutant R544G; type: cell-based
T8 construct: expressed in transfected cells; host or cells: HeLa
Protocol: as §1, §2, §3, §4

[9] = target: T9, hSERT I327A (S2 site mutant) (Homo sapiens, UniProt P31645, I327A); assay: ASP+ binding in digitonin-permeabilized HeLa cells expressing hSERT I327A; settings: 10 μM ASP+, read-out: SAG IC50 for binding
T9 construct: expressed in transfected cells; host or cells: HeLa (ATCC CCL-2), transient, pcDNA3.1
Protocol: as §1, §2, §3, §4

[10] = target: T10, hSERT G498T (S2 site mutant) (Homo sapiens, UniProt P31645, G498T); assay: APP+ transport in HeLa cells expressing hSERT mutant G498T; type: cell-based; settings: 2 μM APP+ 5 min, intact HeLa cells, read-out: SAG IC50 for transport
T10 construct: expressed in transfected cells; host or cells: HeLa (ATCC CCL-2), transient, pcDNA3.1
Protocol: as §1, §2, §3, §4

[11] = target: T11, hDAT D476N (S2 site mutant) (Homo sapiens, UniProt Q01959, D476N); assay: APP+ transport in HeLa cells expressing hDAT mutant D476N; type: cell-based; settings: intact HeLa cells, read-out: SAG IC50
T11 construct: expressed in transfected cells; host or cells: HeLa
Protocol: as §1, §2, §3, §4

[12] = target: T12, hSERT I172F (S1 site mutant) (Homo sapiens, UniProt P31645, I172F); assay: APP+ transport in HeLa cells expressing hSERT mutant I172F; type: cell-based; settings: 2 μM APP+ 5 min, intact HeLa cells, read-out: SAG IC50 for transport
T12 construct: expressed in transfected cells; host or cells: HeLa
Protocol: as §1, §2, §3, §4

[13] = target: T13, hDAT V152F (S1 site mutant) (Homo sapiens, UniProt Q01959, V152F); assay: APP+ transport in HeLa cells expressing hDAT mutant V152F; type: cell-based
T13 construct: expressed in transfected cells; host or cells: HeLa
Protocol: as §1, §2, §3, §4

[14] = target: T14, hSERT S559A (S2 site mutant) (Homo sapiens, UniProt P31645, S559A); assay: APP+ transport in HeLa cells expressing hSERT mutant S559A; type: cell-based; settings: 2 μM APP+ 5 min, intact HeLa cells, read-out: SAG IC50 for transport
T14 construct: expressed in transfected cells; host or cells: HeLa (ATCC CCL-2), transient, pcDNA3.1
Protocol: as §1, §2, §3, §4

[15] = target: T15, hSERT F556A (S2 site mutant) (Homo sapiens, UniProt P31645, F556A); assay: APP+ transport in HeLa cells expressing hSERT mutant F556A; type: cell-based; settings: 2 μM APP+ 5 min, intact HeLa cells, read-out: SAG IC50 for transport
T15 construct: expressed in transfected cells; host or cells: HeLa (ATCC CCL-2), transient, pcDNA3.1
Protocol: as §1, §2, §3, §4

[16] = target: T16, hSERT T583A (S2 site mutant) (Homo sapiens, UniProt P31645, T583A); assay: APP+ transport in HeLa cells expressing hSERT mutant T583A; type: cell-based; settings: 2 μM APP+ 5 min, intact HeLa cells, read-out: SAG IC50 for transport
T16 construct: expressed in transfected cells; host or cells: HeLa (ATCC CCL-2), transient, pcDNA3.1
Protocol: as §1, §2, §3, §4

[17] = target: T9, hSERT I327A (S2 site mutant); assay: APP+ transport in HeLa cells expressing hSERT mutant I327A; type: cell-based; settings: 2 μM APP+ 5 min, intact HeLa cells, read-out: SAG IC50 for transport
Protocol: as §1, §2, §3, §4

[18] = target: T17, hSERT P561G (S2 site mutant) (Homo sapiens, UniProt P31645, P561G); assay: APP+ transport in HeLa cells expressing hSERT mutant P561G; type: cell-based; settings: 2 μM APP+ 5 min, intact HeLa cells, read-out: SAG IC50 for transport
T17 construct: expressed in transfected cells; host or cells: HeLa (ATCC CCL-2), transient, pcDNA3.1
Protocol: as §1, §2, §3, §4

[19] = target: T18, hDAT F76V (S1 site mutant) (Homo sapiens, UniProt Q01959, F76V); assay: APP+ transport in HeLa cells expressing hDAT mutant F76V; type: cell-based
T18 construct: expressed in transfected cells; host or cells: HeLa
Protocol: as §1, §2, §3, §4

[20] = target: T19, hDAT T566A (S2 site mutant) (Homo sapiens, UniProt Q01959, T566A); assay: APP+ transport in HeLa cells expressing hDAT mutant T566A; type: cell-based
T19 construct: expressed in transfected cells; host or cells: HeLa
Protocol: as §1, §2, §3, §4

[21] = target: T20, hSERT T497A (S2 site mutant) (Homo sapiens, UniProt P31645, T497A); assay: APP+ transport in HeLa cells expressing hSERT mutant T497A; type: cell-based; settings: 2 μM APP+ 5 min, intact HeLa cells, read-out: SAG IC50 for transport
T20 construct: expressed in transfected cells; host or cells: HeLa (ATCC CCL-2), transient, pcDNA3.1
Protocol: as §1, §2, §3, §4

T8 sequence (Q01959 whole entry R544G): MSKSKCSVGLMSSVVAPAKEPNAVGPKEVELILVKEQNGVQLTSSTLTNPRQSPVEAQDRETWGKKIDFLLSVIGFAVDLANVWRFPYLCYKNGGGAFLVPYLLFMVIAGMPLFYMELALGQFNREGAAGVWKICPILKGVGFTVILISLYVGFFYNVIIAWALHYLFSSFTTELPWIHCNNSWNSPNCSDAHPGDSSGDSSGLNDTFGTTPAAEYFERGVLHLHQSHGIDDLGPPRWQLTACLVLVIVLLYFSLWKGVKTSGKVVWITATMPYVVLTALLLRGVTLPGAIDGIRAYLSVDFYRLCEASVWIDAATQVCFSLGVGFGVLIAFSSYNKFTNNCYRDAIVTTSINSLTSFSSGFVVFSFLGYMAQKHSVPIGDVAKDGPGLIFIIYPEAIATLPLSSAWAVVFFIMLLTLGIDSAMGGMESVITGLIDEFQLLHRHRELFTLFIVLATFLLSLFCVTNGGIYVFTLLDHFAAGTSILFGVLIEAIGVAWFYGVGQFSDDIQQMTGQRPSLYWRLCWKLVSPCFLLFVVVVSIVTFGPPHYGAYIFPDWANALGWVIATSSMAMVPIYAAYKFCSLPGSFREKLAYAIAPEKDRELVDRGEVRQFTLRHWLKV
T2 sequence (Q01959 whole entry S422T): as the sequence (Q01959 whole entry R544G) above, with S422T, G544R counted along it
T13 sequence (Q01959 whole entry V152F): as the sequence (Q01959 whole entry R544G) above, with V152F, G544R counted along it
T18 sequence (Q01959 whole entry F76V): as the sequence (Q01959 whole entry R544G) above, with F76V, G544R counted along it
T19 sequence (Q01959 whole entry T566A): as the sequence (Q01959 whole entry R544G) above, with G544R, T566A counted along it
T11 sequence (Q01959 whole entry D476N): as the sequence (Q01959 whole entry R544G) above, with D476N, G544R counted along it
T1 sequence (P23975 whole entry Q314A): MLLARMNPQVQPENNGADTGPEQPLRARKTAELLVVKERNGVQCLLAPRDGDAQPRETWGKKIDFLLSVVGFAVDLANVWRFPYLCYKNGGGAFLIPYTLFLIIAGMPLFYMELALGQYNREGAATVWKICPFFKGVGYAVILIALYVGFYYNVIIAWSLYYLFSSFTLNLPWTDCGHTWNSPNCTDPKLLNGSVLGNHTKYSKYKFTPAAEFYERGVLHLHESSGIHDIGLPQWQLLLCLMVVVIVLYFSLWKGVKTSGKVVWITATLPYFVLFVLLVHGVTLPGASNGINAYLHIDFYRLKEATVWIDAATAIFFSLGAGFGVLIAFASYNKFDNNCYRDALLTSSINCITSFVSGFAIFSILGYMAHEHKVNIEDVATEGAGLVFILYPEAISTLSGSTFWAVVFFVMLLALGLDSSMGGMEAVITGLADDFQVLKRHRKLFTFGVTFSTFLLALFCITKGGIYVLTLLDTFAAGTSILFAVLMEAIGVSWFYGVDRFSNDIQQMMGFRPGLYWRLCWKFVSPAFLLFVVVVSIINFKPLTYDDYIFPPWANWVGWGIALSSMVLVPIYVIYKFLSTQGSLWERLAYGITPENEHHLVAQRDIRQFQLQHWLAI

(-)-Syringaresinol-4-O-β-D-apiofuranosyl-(1→2)-β-D-glucopyranoside [SAG]
IC50 [1]: 4.37 ± 1.06 µM | Effect of mutation on SAG inhibition potency ([2]; hDAT S1 residue Ser422 replaced): little effect | IC50 ([2]; hDAT S422T (S1), intact HeLa cells, read-out: SAG IC50): 24.5 ± 1.4 µM | IC50 [3]: 53.2 ± 6.6 µM | IC50 [4]: 243 ± 10 µM | IC50 [5]: 450 ± 23 µM | IC50 [6]: 192 ± 16 µM | IC50 [7]: 127 ± 3 µM | Increase in SAG IC50 compared with WT ([8]; hDAT R544G vs WT-hDAT): less than 10 fold | IC50 ([8]; hDAT R544G, intact HeLa cells, read-out: SAG IC50): 150 ± 4 µM | IC50 [9]: 48.3 ± 4.6 µM | IC50 [10]: 69.2 ± 3.3 µM | IC50 [11]: 93.8 ± 3.9 µM | IC50 [12]: 12.5 ± 0.97 µM | Effect of mutation on SAG inhibition potency ([13]; hDAT S1 residue Val152 replaced): little effect | IC50 ([13]; hDAT V152F (S1), intact HeLa cells, read-out: SAG IC50): 26.6 ± 2.8 µM | IC50 [14]: 20.2 ± 1.9 µM | IC50 [15]: 41 ± 6.5 µM | IC50 [16]: > 1000 µM | IC50 [17]: 25.5 ± 1.2 µM | IC50 [18]: > 1000 µM | IC50 ([19]; hDAT F76V (S1), intact HeLa cells, read-out: SAG IC50): 18.2 ± 0.8 µM | Effect of mutation on SAG inhibition potency ([19]; hDAT S1 residue Phe76 replaced): little effect | Increase in SAG IC50 compared with WT ([20]; hDAT T566A vs WT-hDAT): less than 10 fold | IC50 ([20]; hDAT T566A, intact HeLa cells, read-out: SAG IC50): 136 ± 6 µM | IC50 [21]: 111 ± 2 µM
